Laboratory results published in patent publication EP0967196B1, “Substituted 2-hydroxybenzophenones, preparation thereof, their use as fungicide and their fungicidal compositions” (BASF AKTIENGESELLSCHAFT, priority 1998, dated 1999).

What was measured:
[1] = test system: Blumeria (Erysiphe) graminis DC. f.sp. tritici E. Marchal; assay: Wheat Powdery Mildew (WPM) residual fungicidal activity, inoculation 4 or 5 days after spray application on wheat plants; format: in vivo; conditions: for Emax at 0.2 ppm / Emax at 1 ppm / Emax at 5 ppm / Emax at 25 ppm / Emax at 125 ppm: Blumeria, WPM 4/5 da R (4/5 day residual), wheat variety Kanzler, read-out: Disease control (% efficacy); for Emax at 0.2 ppm: rate 0.2 ppm; for Emax at 125 ppm: rate 125 ppm; for WPM 4 day residual % disease control: Comparison test (Table IV), 200 l/ha
Excerpt: (§1) • Wheat Powdery Mildew (WPM): • HOST: Wheat (Triticum aestivum L.) variety Kanzler • PATHOGEN: Blumeria (Erysiphe) graminis DC. f.sp. tritici E. Marchal
(§2) • 1. Wheat seed (approximately 8-10/pot) is planted in 6 cm diameter plastic pots and maintained in the greenhouse. • 2. When the primary leaf (wheat) is fully expanded, formulated test compounds are sprayed with a single nozzle overhead track sprayer at a rate of 200 l/ha. Plants are then allowed to air-dry. • 3. Inoculation precedes treatment by 3 days in the case of curative evaluations and follows treatment by 4 or 5 days in case of residual evaluations. For inoculation, plants are set up on greenhouse benches with bottom watering mats and inoculated by dusting them with conidia from powdery mildew infected plants (stock cultures at an age of 10-14 days). Between inoculation and treatment for curative evaluations and between treatment and inoculation for residual evaluations, plants are maintained in the greenhouse with bottom watering. • 4. Disease on the primary leaf as percent leaf area with disease symptoms/signs is evaluated about 7 days after inoculation. In the case of wheat, the tips and bases of the leaves are excluded from the evaluation.
(§3) Percent disease control is then calculated by the following formula: % disease control = 100 -(% infection in treated plants)/(% infection in untreated plants)x 100 [formula]
(§4) • 1. Technical compounds are formulated in a solvent/surfactant system consisting of 5% acetone and 0.05% Tween 20 in deionized water. Compounds are dissolved in acetone prior to addition of the water; the Tween 20 can be added through either the acetone or the water. Dilutions are made using the solvent/surfactant system. Formulated compounds are prepared using deionized water. • 2. Two kinds of controls are included: • Plants treated with the solvent/surfactant solution and inoculated (Solvent Blank). • Untreated plants which are inoculated (Inoculated Control).
4/5 da R = 4/5 day residual Inoculation 4 or 5 days AFTER application
(§5) The fungicidal activity against wheat powdery mildew of the hydroxybenzophenones according to this invention has been compared with a fungicidal benzophenone known from EP 0 727 141 in the following table. Compounds applied to seedling wheat plants using a single-nozzle overhead track sprayer at an application rate of 200 l/ha.

[2] = test system: Blumeria (Erysiphe) graminis DC. f.sp. tritici E. Marchal; assay: Wheat Powdery Mildew (WPM) curative fungicidal activity, inoculation 3 days before spray application on wheat plants; format: in vivo; set-up: key to WPM 3 day curative Antisporulation effect: +++ = complete (no spore release); ++ = moderate; + = slight; o = none; conditions: for Emax at 0.2 ppm / Emax at 1 ppm / Emax at 5 ppm / Emax at 25 ppm / Emax at 125 ppm: Blumeria, 72 h, WPM 3 da C (3 day curative), wheat variety Kanzler, read-out: Disease control (% efficacy); for Emax at 0.2 ppm: rate 0.2 ppm; for Emax at 125 ppm: rate 125 ppm; for WPM 3 day curative % disease control / WPM 3 day curative Antisporulation effect: Comparison test (Table IV), 200 l/ha
Excerpt: as §1, §2, §3, §4, §5

Row | Compound | Emax at 0.2 ppm [1] | Emax at 1 ppm ([1]; rate 1 ppm) | Emax at 5 ppm ([1]; rate 5 ppm) | Emax at 25 ppm ([1]; rate 25 ppm) | Emax at 125 ppm [1] | Emax at 0.2 ppm [2] | Emax at 1 ppm ([2]; rate 1 ppm) | Emax at 5 ppm ([2]; rate 5 ppm) | Emax at 25 ppm ([2]; rate 25 ppm) | Emax at 125 ppm [2] | WPM 4 day residual % disease control ([1]; rate 1 ppm) | WPM 4 day residual % disease control ([1]; rate 5 ppm) | WPM 4 day residual % disease control ([1]; rate 25 ppm) | WPM 3 day curative % disease control ([2]; rate 1 ppm) | WPM 3 day curative Antisporulation effect ([2]; rate 1 ppm) | WPM 3 day curative % disease control ([2]; rate 5 ppm) | WPM 3 day curative Antisporulation effect ([2]; rate 5 ppm) | WPM 3 day curative % disease control ([2]; rate 25 ppm) | WPM 3 day curative Antisporulation effect ([2]; rate 25 ppm)
1 | COc1cc(C)c(C(=O)c2c(OC(C)=O)ccc(Br)c2C)c(OC)c1OC [Example 1, 2-acetoxy-5-bromo-6,6'-dimethyl-2',3',4'-trimethoxybenzophenone] | 53% | 84% | 98% | 100% | 100% | 2% | 17% | 33% | 49% | 55% | – | – | – | – | – | – | – | – | –
2 | CCCCOc1c(OC)c(OC)cc(C)c1C(=O)c1c(Cl)cccc1Cl [standard, 2'-n-butyloxy-2,6-dichloro-3',4'-dimethoxy-6'-methylbenzophenone, reference compound] | – | – | – | – | – | – | – | – | – | – | 15% | 47% | 92% | 0% | 0 | 3% | 0 | 6% | +
3 | COc1cc(C)c(C(=O)c2c(O)ccc(Br)c2C)c(OC)c1OC [Example 2, 5-bromo-6,6'-dimethyl-2-hydroxy-2',3',4'-trimethoxybenzophenone] | 86% | 98% | 100% | 100% | 100% | 13% | 23% | 37% | 53% | 59% | 52% | 78% | 100% | 10% | + | 22% | + | 40% | +++
